Experimental data published in paper PMC8445441, “Elucidating the mechanism by which synthetic helper peptides sensitize Pseudomonas aeruginosa to multiple antibiotics” (PLoS Pathogens, 2021).
Like-named read-outs stand apart in the source and are kept apart here.

Columns and labels:
[1] = tested on: clinical P. aeruginosa isolates; assay: microbe, parasite or virus in culture; conditions: Pseudomonas aeruginosa, 18 h, antibiotic alone
In short: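 MIC is the lowest drug concentration showing no visible growth after 18 h at 37 °C. Two-fold dilutions in MHB were combined with an equal volume of bacterial suspension (about 1 × 10^6 CFU/mL), following CLSI broth microdilution, in triplicate.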

P. aeruginosa AUMC-Pa-6 = assay: microbe, parasite or virus in culture
In short: (§1)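 CLSI broth dilution; MHB; ~1 × 10^6 CFU/mL suspension mixed equal volume with drug; 37 °C for 18 h; visual read; triplicate. Broth sometimes supplemented with PG, PE, PC, CL, LPS, MgCl2, CaCl2 or PAβN.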

P. aeruginosa AUMC-Pa-5 = assay: microbe, parasite or virus in culture
In short: as §1

P. aeruginosa AUMC-Pa-3 = assay: microbe, parasite or virus in culture
In short: as §1

P. aeruginosa PAO1 = assay: microbe, parasite or virus in culture; conditions: PAO1; for FICI / MICac: the MIC for the antibiotic in the combination: S3 Table
In short: as §1

P. aeruginosa AUMC-Pa-4 = assay: microbe, parasite or virus in culture
In short: as §1

P. aeruginosa HM-214 = conditions: strain HM-214; antibiotic + D-11 (MICb/MICbc 128/4)
In short: as §1

P. aeruginosa PAK = assay: microbe, parasite or virus in culture; design: MICa: MIC of the antibiotic / MICac: MIC of the antibiotic in the combination: unit not given beside the values
In short: as §1

P. aeruginosa NR-31040 = assay: microbe, parasite or virus in culture; design: MICa: MIC of the antibiotic / MICac: MIC of the antibiotic in the combination: unit not given beside the values
In short: as §1

P. aeruginosa NR-31041 = assay: microbe, parasite or virus in culture; design: MICa: MIC of the antibiotic / MICac: MIC of the antibiotic in the combination: unit not given beside the values
In short: as §1

P. aeruginosa PA14 = assay: microbe, parasite or virus in culture; design: MICa: MIC of the antibiotic / MICac: MIC of the antibiotic in the combination: unit not given beside the values
In short: as §1

P. aeruginosa ATCC27853 = assay: microbe, parasite or virus in culture; design: MICa: MIC of the antibiotic / MICac: MIC of the antibiotic in the combination: unit not given beside the values
In short: as §1

P. aeruginosa AUMC-Pa-2 = conditions: strain AUMC-Pa-2; antibiotic + D-11 (MICb/MICbc 64/4)
In short: as §1

P. aeruginosa AUMC-Pa-1 = conditions: strain AUMC-Pa-1; antibiotic + D-11 (MICb/MICbc 128/4)
In short: as §1

SMILES: C[C@H]1COc2c(N3CCN(C)CC3)c(F)cc3c(=O)c(C(=O)O)cn1c23 [Levofloxacin]
- MIC ([1]; read-out: Antibiotic sensibility (MIC) of clinical P. aeruginosa isolate AUMC-Pa-1, strain AUMC-Pa-1): 8 µM
- MIC ([1]; read-out: Antibiotic sensibility (MIC) of clinical P. aeruginosa isolate AUMC-Pa-2, strain AUMC-Pa-2): 0.5 µM
- MIC ([1]; read-out: Antibiotic sensibility (MIC) of clinical P. aeruginosa isolate AUMC-Pa-3, strain AUMC-Pa-3): 0.5 µM
- MIC ([1]; read-out: Antibiotic sensibility (MIC) of clinical P. aeruginosa isolate AUMC-Pa-4, strain AUMC-Pa-4): 0.5 µM
- MIC ([1]; read-out: Antibiotic sensibility (MIC) of clinical P. aeruginosa isolate AUMC-Pa-5, strain AUMC-Pa-5): 0.5 µM
- MIC ([1]; read-out: Antibiotic sensibility (MIC) of clinical P. aeruginosa isolate AUMC-Pa-6, strain AUMC-Pa-6): 0.25 µM
- MIC ([1]; read-out: Antibiotic sensibility (MIC) of clinical P. aeruginosa isolate HM-214, strain HM-214): 1 µM
- MIC ([1]; read-out: Antibiotic sensibility (MIC) of clinical P. aeruginosa isolate NR-31040, strain NR-31040): 1 µM
- MIC ([1]; read-out: Antibiotic sensibility (MIC) of clinical P. aeruginosa isolate NR-31041, strain NR-31041): 1 µM
- MIC (P. aeruginosa AUMC-Pa-6; Pseudomonas aeruginosa, AUMCPA6, 18 h, read-out: MICa: MIC of the antibiotic): 0.25 µM
- FICI (P. aeruginosa AUMC-Pa-6; strain AUMC-Pa-6, antibiotic + D-11 (MICb/MICbc 64/4)): 1.063
- MICac: MIC of the antibiotic in the combination (P. aeruginosa AUMC-Pa-6; strain AUMC-Pa-6, with D-11 at MICbc 4, unit not given): 0.25/0.25
- MIC (P. aeruginosa AUMC-Pa-5; Pseudomonas aeruginosa, AUMCPA5, 18 h, read-out: MICa: MIC of the antibiotic): 0.5 µM
- FICI (P. aeruginosa AUMC-Pa-5; strain AUMC-Pa-5, antibiotic + D-11 (MICb/MICbc 64/4)): 2.063
- MICac: MIC of the antibiotic in the combination (P. aeruginosa AUMC-Pa-5; strain AUMC-Pa-5, with D-11 at MICbc 4, unit not given): 1
- MIC (P. aeruginosa AUMC-Pa-3; Pseudomonas aeruginosa, AUMCPA3, 18 h, read-out: MICa: MIC of the antibiotic): 0.5 µM
- FICI (P. aeruginosa AUMC-Pa-3; strain AUMC-Pa-3, antibiotic + D-11 (MICb/MICbc 128/4)): 0.281
- MICac: MIC of the antibiotic in the combination (P. aeruginosa AUMC-Pa-3; strain AUMC-Pa-3, with D-11 at MICbc 4, unit not given): 0.125
- MIC (P. aeruginosa PAO1; Pseudomonas aeruginosa, PAO1, 18 h, read-out: MICa: the MIC of antibiotics, S3 Table, antibiotic alone): 1 µM
- FICI (P. aeruginosa PAO1; antibiotic + 2 μM D-11): 0.125
- FICI (P. aeruginosa PAO1; antibiotic + 4 μM D-11): 0.156
- MICac: the MIC for the antibiotic in the combination (P. aeruginosa PAO1; with 2 μM D-11): 0.0625 µM
- MICac: the MIC for the antibiotic in the combination (P. aeruginosa PAO1; with 4 μM D-11): 0.03125 µM
- MIC (P. aeruginosa AUMC-Pa-4; Pseudomonas aeruginosa, AUMCPA4, 18 h, read-out: MICa: MIC of the antibiotic): 0.5 µM
- FICI (P. aeruginosa AUMC-Pa-4; strain AUMC-Pa-4, antibiotic + D-11 (MICb/MICbc 128/4)): 0.531
- MICac: MIC of the antibiotic in the combination (P. aeruginosa AUMC-Pa-4; strain AUMC-Pa-4, with D-11 at MICbc 4, unit not given): 0.25
- FICI (P. aeruginosa HM-214): 0.531
- MIC (P. aeruginosa PAK; Pseudomonas aeruginosa, 18 h, read-out: MICa: MIC of the antibiotic): 0.5 µM
- FICI (P. aeruginosa PAK; strain PAK, antibiotic + D-11 (MICb/MICbc 64/4)): 0.563
- MICac: MIC of the antibiotic in the combination (P. aeruginosa PAK; strain PAK, with D-11 at MICbc 4, unit not given): 0.25
- MIC (P. aeruginosa NR-31040; Pseudomonas aeruginosa, NR31040, 18 h, read-out: MICa: MIC of the antibiotic): 1 µM
- FICI (P. aeruginosa NR-31040; strain NR-31040, antibiotic + D-11 (MICb/MICbc 128/4)): 0.281
- MICac: MIC of the antibiotic in the combination (P. aeruginosa NR-31040; strain NR-31040, with D-11 at MICbc 4, unit not given): 0.25
- MIC (P. aeruginosa NR-31041; Pseudomonas aeruginosa, NR31041, 18 h, read-out: MICa: MIC of the antibiotic): 1 µM
- FICI (P. aeruginosa NR-31041; strain NR-31041, antibiotic + D-11 (MICb/MICbc 64/4)): 0.313
- MICac: MIC of the antibiotic in the combination (P. aeruginosa NR-31041; strain NR-31041, with D-11 at MICbc 4, unit not given): 0.25
- MIC (P. aeruginosa PA14; Pseudomonas aeruginosa, PA14, 18 h, read-out: MICa: MIC of the antibiotic): 0.5 µM
- FICI (P. aeruginosa PA14; strain PA14, antibiotic + D-11 (MICb/MICbc 128/4)): 0.531
- MICac: MIC of the antibiotic in the combination (P. aeruginosa PA14; strain PA14, with D-11 at MICbc 4, unit not given): 0.25
- MIC (P. aeruginosa ATCC27853; Pseudomonas aeruginosa, ATCC27853, 18 h, read-out: MICa: MIC of the antibiotic): 1 µM
- FICI (P. aeruginosa ATCC27853; strain ATCC27853, antibiotic + D-11 (MICb/MICbc 32/4)): 0.250
- MICac: MIC of the antibiotic in the combination (P. aeruginosa ATCC27853; strain ATCC27853, with D-11 at MICbc 4, unit not given): 0.125
- FICI (P. aeruginosa AUMC-Pa-2): 0.563
- FICI (P. aeruginosa AUMC-Pa-1): 0.156
